Test results published in US20240116985A1, “STAPLED PEPTIDES AND METHODS THEREOF” (priority 2020, published 2024).
Like-named read-outs stand apart in the source and are kept apart here.

What was measured:
[1] = biological target: T1, full-length beta-Catenin (Uniprot ID P35222) (Homo sapiens, UniProt P35222); assay: Fluorescence polarization IC50 (beta-catenin / 5FAM-TCF4 10-53 competition); type: binding; conditions: fluorescence polarization; read-out: beta-Catenin FP IC50
T1 construct: 10 nM full-length beta-Catenin (Uniprot ID P35222)
T1 sequence (P35222 1-781): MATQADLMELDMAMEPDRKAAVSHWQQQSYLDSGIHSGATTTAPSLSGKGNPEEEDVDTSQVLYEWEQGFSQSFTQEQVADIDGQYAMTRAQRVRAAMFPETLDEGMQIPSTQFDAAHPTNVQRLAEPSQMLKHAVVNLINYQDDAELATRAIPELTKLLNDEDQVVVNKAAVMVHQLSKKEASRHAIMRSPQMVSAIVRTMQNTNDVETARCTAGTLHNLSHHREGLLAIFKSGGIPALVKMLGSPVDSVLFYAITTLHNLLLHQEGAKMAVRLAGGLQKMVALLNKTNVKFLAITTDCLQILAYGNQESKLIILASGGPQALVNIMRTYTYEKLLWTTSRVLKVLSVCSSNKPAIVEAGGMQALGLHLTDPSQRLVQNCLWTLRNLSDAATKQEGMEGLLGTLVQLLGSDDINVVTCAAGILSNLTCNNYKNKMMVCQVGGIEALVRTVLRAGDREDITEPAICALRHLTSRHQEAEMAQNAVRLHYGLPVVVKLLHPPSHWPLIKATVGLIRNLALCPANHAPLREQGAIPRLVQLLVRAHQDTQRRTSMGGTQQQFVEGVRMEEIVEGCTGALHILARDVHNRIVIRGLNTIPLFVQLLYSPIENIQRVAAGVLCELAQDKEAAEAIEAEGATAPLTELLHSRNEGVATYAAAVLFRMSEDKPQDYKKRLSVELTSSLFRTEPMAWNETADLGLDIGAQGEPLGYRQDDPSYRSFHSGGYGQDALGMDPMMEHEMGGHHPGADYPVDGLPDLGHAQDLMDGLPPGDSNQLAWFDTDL

[2] = biological target: T2, beta-catenin/TCF4 engagement (Homo sapiens, UniProt P35222); assay: Nano-BRET target engagement assay (B-cat-Halo & TCF4-Luc in HEK293 cells); type: cell-based; conditions: read-out: NanoBRET Abs IC50
T2 construct: expressed in transfected cells; host or cells: HEK293
T2 sequence (P35222 1-781): T1 sequence (P35222 1-781)

[3] = system: COLO320DM cells; type: cell-based; conditions: COLO320DM cells, read-out: COLO320DM Proliferation Abs IC50
Procedure: COLO320DM proliferation assay IC50: In some embodiments, inhibition of cell proliferation by provided technologies were assessed using cell lines related to or from certain conditions, disorders or diseases. In some embodiments, cell proliferation was assessed in COLO320DM cells. In some embodiments, assessment was performed using the following procedure: On Day 1, cultured COLO320DM cells in a T75 flask were trypsinized in 3 mL of 0.25% trypsin/EDTA for 5 min and quenched with 10 mL RPMI-1640+4% HI FBS assay media. The cells were spun down at 1200 rpm for 5 min, the cell pellet collected and re-suspended at 5000 cells/mL in assay media. Using a Combi liquid handler, cells were dispensed (50 uL, 250 cells/well) into three 384 well plates. Plates were incubated at 37° C., […]. On day 2, compounds were added. A liquid handling system was used to prepare the compound dilution and dispense compound into assay plates. The compounds were serially diluted 1/2 in 90% DMSO to create a 7 point dose curve. From compound plate, 100 nL of compound were dispensed directly into wells of the assay plates to create a dose curve starting at 20 uM and ending at 313 nM. Assay plates were incubated at 37° C., […]. On day 6, assay plates were removed from the incubator and allowed to sit at room temperature for 30 min. Using a liquid handler, 20 uL of CellTiter Glo reagent was added to each well. The assay plates were shaken for 2 min and allowed to sit on the bench for 10-15 minutes. The assay plates were read using the CellTiter Glo protocol on a GloMax microplate reader, and the data analyzed using GraphPad Prism.

| SMILES | IC50 [1] | IC50 [2] | IC50 [3] | IC50 ([2]; absolute IC50) | IC50 ([3]; absolute IC50) |
| --- | --- | --- | --- | --- | --- |
| CC(=O)N1CCC[C@]12CC=CCCCC1(CCCC=CCCCOC(=O)N3CC[C@@](C(=O)N[C@@H](Cc4ccsc4)C(=O)N[C@@H](Cc4csc5ccccc45)C(=O)N[C@@H](CC(N)=O)C(N)=O)(C3)NC(=O)[C@H](Cc3ccccc3)NC(=O)[C@H](Cc3ccccc3)NC(=O)[C@H](C)NC(=O)[C@H](C)NC(=O)[C@H](Cc3cccc(C(=O)O)c3)NC(=O)[C@H](CC(=O)O)NC1=O)NC(=O)[C@H](CC(C)(C)C)NC(=O)[C@H](CC(=O)O)NC2=O (stereo partly drawn) [I-2044, Ac-PL3-Asp-Npg-B5-Asp-3COOHF-Ala-Ala-Phe-Phe-PyrS2-3Thi-BztA-Asn-NH2] | 0.009 µM | 2.6 µM | > 20 µM | – | – |
| CC(=O)N1CCC[C@]12CC=CCCCC1(CCCC=CCCCOC(=O)N3CC[C@@](C(=O)N[C@@H](Cc4ccccc4C(F)(F)F)C(=O)N[C@@H](Cc4csc5ccccc45)C(=O)N[C@@H](C)C(N)=O)(C3)NC(=O)[C@H](CC(C)C)NC(=O)[C@H](Cc3ccccc3)NC(=O)[C@H](C)NC(=O)[C@H](CCC(=O)N3Cc4ccccc4C3)NC(=O)[C@H](Cc3cccc(C(=O)O)c3)NC(=O)[C@H](CC(=O)O)NC1=O)NC(=O)[C@H](CC(C)(C)C)NC(=O)[C@H](CC(=O)O)NC2=O (stereo partly drawn) [I-2320, Ac-PL3-Asp-Npg-B5-Asp-3COOHF-[isoindoline]GlnR-Ala-Phe-Leu-PyrS2-2F3MeF-BztA-Ala-NH2] | 0.029 µM | – | – | 2.7 µM | > 20 µM |
| CC(=O)N1CCC[C@]12CC=CCCCC1(CCCC=CCCCOC(=O)N3CC[C@@](C(=O)N[C@@H](Cc4ccccc4C(F)(F)F)C(=O)N[C@@H](Cc4csc5ccccc45)C(=O)N[C@@H](C)C(N)=O)(C3)NC(=O)[C@H](CC(C)C)NC(=O)[C@H](Cc3ccccc3)NC(=O)[C@H](C)NC(=O)[C@H](CCC(=O)N3CCNC(=O)C3)NC(=O)[C@H](Cc3cccc(C(=O)O)c3)NC(=O)[C@H](CC(=O)O)NC1=O)NC(=O)[C@H](CC(C)(C)C)NC(=O)[C@H](CC(=O)O)NC2=O (stereo partly drawn) [I-2318, Ac-PL3-Asp-Npg-B5-Asp-3COOHF-[2OxoPpz]GlnR-Ala-Phe-Leu-PyrS2-2F3MeF-BztA-Ala-NH2] | 0.005 µM | – | – | 1.8 µM | > 20 µM |
| CC(=O)N1CCC[C@]12CC=CCCCC1(CCCC=CCCCOC(=O)N3CC[C@@](C(=O)N[C@@H](Cc4ccccc4C(F)(F)F)C(=O)N[C@@H](Cc4csc5ccccc45)C(=O)N[C@@H](CCC(=O)N(C)C)C(N)=O)(C3)NC(=O)[C@H](CC(C)C)NC(=O)[C@H](Cc3ccccc3)NC(=O)[C@H](C)NC(=O)[C@H](C)NC(=O)[C@H](Cc3cccc(C(=O)O)c3)NC(=O)[C@H](CC(=O)O)NC1=O)NC(=O)[C@H](CC(C)(C)C)NC(=O)[C@H](CC(=O)O)NC2=O (stereo partly drawn) [I-2532, Ac-PL3-Asp-Npg-B5-Asp-3COOHF-Ala-Ala-Phe-Leu-PyrS2-2F3MeF-BztA-Me2Gln-NH2] | 0.014 µM | – | – | 4.5 µM | > 20 µM |
| CC(=O)N1CCC[C@]12CC=CCCCC1(CCCC=CCCCOC(=O)N3CC[C@@](C(=O)N[C@@H](Cc4ccsc4)C(=O)N[C@@H](Cc4csc5ccccc45)C(=O)N[C@@H](CC(N)=O)C(=O)N[C@@H](C)C(=O)NC(C)(C)C(=O)N[C@@H](C)C(N)=O)(C3)NC(=O)[C@H](CC(C)C)NC(=O)[C@H](Cc3ccccc3)NC(=O)[C@H](C)NC(=O)[C@H](C)NC(=O)[C@H](Cc3cccc(C(=O)O)c3)NC(=O)[C@H](CC(=O)O)NC1=O)NC(=O)[C@H](CC(C)(C)C)NC(=O)[C@H](CC(=O)O)NC2=O (stereo partly drawn) [I-2271, Ac-PL3-Asp-Npg-B5-Asp-3COOHF-Ala-Ala-Phe-Leu-PyrS2-3Thi-BztA-Asn-Ala-Aib-Ala-NH2] | 0.013 µM | – | – | 2.3 µM | 9 µM |
| COCCN(CCOC)C(=O)CC[C@@H]1NC(=O)[C@H](Cc2cccc(C(=O)O)c2)NC(=O)[C@H](CC(=O)O)NC(=O)C2(CCCC=CCCCOC(=O)N3CC[C@@](C(=O)N[C@@H](Cc4ccccc4C(F)(F)F)C(=O)N[C@@H](Cc4csc5ccccc45)C(=O)N[C@@H](C)C(N)=O)(C3)NC(=O)[C@H](CC(C)C)NC(=O)[C@H](Cc3ccccc3)NC(=O)[C@H](C)NC1=O)CCCC=CC[C@]1(CCCN1C(C)=O)C(=O)N[C@@H](CC(=O)O)C(=O)N[C@@H](CC(C)(C)C)C(=O)N2 (stereo partly drawn) [I-2322, Ac-PL3-Asp-Npg-B5-Asp-3COOHF-[bismethoxyethylamine]GlnR-Ala-Phe-Leu-PyrS2-2F3MeF-BztA-Ala-NH2] | 0.007 µM | – | – | 1.8 µM | > 20 µM |
| CC(=O)N1CCC[C@]12CC=CCCCC1(CCCC=CCCCOC(=O)N3CC[C@@](C(=O)N[C@@H](Cc4ccsc4)C(=O)N[C@@H](Cc4csc5ccccc45)C(=O)N[C@@H](CC(N)=O)C(=O)N[C@@H](C)C(=O)N[C@@H](C)C(=O)N[C@@H](C)C(=O)N[C@@H](C)C(=O)N[C@@H](C)C(N)=O)(C3)NC(=O)[C@H](CC(C)C)NC(=O)[C@H](Cc3ccccc3)NC(=O)[C@H](C)NC(=O)[C@H](C)NC(=O)[C@H](Cc3cccc(C(=O)O)c3)NC(=O)[C@H](CC(=O)O)NC1=O)NC(=O)[C@H](CC(C)(C)C)NC(=O)[C@H](CC(=O)O)NC2=O (stereo partly drawn) [I-2268, Ac-PL3-Asp-Npg-B5-Asp-3COOHF-Ala-Ala-Phe-Leu-PyrS2-3Thi-BztA-Asn-Ala-Ala-Ala-Ala-Ala-NH2] | 0.013 µM | – | – | 3.1 µM | 4.3 µM |
| CC(=O)N1CCC[C@]12CC=CCCCC1(CCCC=CCCCOC(=O)N3CC[C@@](C(=O)N[C@@H](Cc4ccccc4Cl)C(=O)N[C@@H](Cc4csc5ccccc45)C(=O)N[C@@H](CC(N)=O)C(=O)N[C@@H](C)C(=O)N[C@@H](C)C(=O)N[C@@H](C)C(N)=O)(C3)NC(=O)[C@H](CC(C)C)NC(=O)[C@H](Cc3ccccc3)NC(=O)[C@H](C)NC(=O)[C@H](C)NC(=O)[C@H](Cc3cccc(C(=O)O)c3)NC(=O)[C@H](CC(=O)O)NC1=O)NC(=O)[C@H](CC(C)(C)C)NC(=O)[C@H](CC(=O)O)NC2=O (stereo partly drawn) [I-2040, Ac-PL3-Asp-Npg-B5-Asp-3COOHF-Ala-Ala-Phe-Leu-PyrS2-2C1F-BztA-Asn-Ala-Ala-Ala-NH2] | 0.024 µM | 2.8 µM | > 20 µM | – | – |
| CCCC[C@@H]1NC(=O)[C@H](Cc2ccccc2)NC(=O)[C@H](C)NC(=O)[C@H](C)NC(=O)[C@H](Cc2cccc(C(=O)O)c2)NC(=O)[C@H](CC(=O)O)NC(=O)C2(CCCC=CCCCOC(=O)N3CC[C@@](C(=O)N[C@@H](Cc4ccccc4C(F)(F)F)C(=O)N[C@@H](Cc4csc5ccccc45)C(=O)N[C@@H](CCC(=O)N(C)C)C(N)=O)(C3)NC1=O)CCCC=CC[C@]1(CCCN1C(C)=O)C(=O)N[C@@H](CC(=O)O)C(=O)N[C@@H](CC(C)(C)C)C(=O)N2 (stereo partly drawn) [I-2533, Ac-PL3-Asp-Npg-B5-Asp-3COOHF-Ala-Ala-Phe-nLeu-PyrS2-2F3MeF-BztA-Me2Gln-NH2] | 0.028 µM | – | – | 6.2 µM | > 20 µM |
| CC(=O)N1CCC[C@]12CC=CCCCC1(CCCC=CCCCOC(=O)N3CC[C@@](C(=O)N[C@@H](Cc4ccccc4C(F)(F)F)C(=O)N[C@@H](Cc4csc5ccccc45)C(=O)N[C@@H](C)C(N)=O)(C3)NC(=O)[C@H](CC(C)C)NC(=O)[C@H](Cc3ccccc3)NC(=O)[C@H](C)NC(=O)[C@H](CCC(=O)N3CCOCC3)NC(=O)[C@H](Cc3cccc(C(=O)O)c3)NC(=O)[C@H](CC(=O)O)NC1=O)NC(=O)[C@H](CC(C)(C)C)NC(=O)[C@H](CC(=O)O)NC2=O (stereo partly drawn) [I-2315, Ac-PL3-Asp-Npg-B5-Asp-3COOHF-[Morph]GlnR-Ala-Phe-Leu-PyrS2-2F3MeF-BztA-Ala-NH2] | 0.005 µM | – | – | 1.2 µM | > 20 µM |
